Data as given in patent US7829297B2, “Treatment of cancers expressing p95 ErbB2” (GlaxoSmithKline LLC, priority 2003, dated 2010).

Columns and labels:
[1] = test system: p95^ErbB2; assay: Western blot of p95ErbB2 in BT474 cells; assay type: cell-based, human
Procedure: (§1) Equal amounts of protein were separated by SDS-PAGE and then ErbB2, p95^ErbB2, pTyr/p95^ErbB2, and pTyr/ErbB2 steady state protein levels were assessed by Western blot. […] Along the left side of the lanes, the uppermost arrow indicates p185; lower arrowhead indicates p95. Molecular weights are indicated on the right side of the figure.

[2] = test system: p95^ErbB2; assay: p95ErbB2 in BT474 tumor xenografts (Western blot); assay type: in vivo, mice
Description: (§2) BT474 tumor xenografts were established in CD-1 nude mice.

[3] = test system: MAPK-Erk1/2 and PI3K-AKT pathways, cyclin D1/2; assay: Downstream signaling in BT474 tumor xenografts (Western blot); assay type: in vivo, mice
Procedure: Equal amounts of protein from tumor xenograft whole cell extracts were separated by SDS-PAGE and steady state protein levels of total and phosphorylated forms Erk1/2 and AKT were assessed by Western blot. Cyclin D1/2 steady state protein levels were also determined.

[4] = test system: Erk1/2 and AKT; assay: Activation of Erk1/2 and AKT by EGF and heregulin in BT474 cells; assay type: cell-based, human; conditions: 1 μM
[5] = test system: BT474 cells; assay: Proliferation of BT474 cells; assay type: cell-based, human
[6] = test system: solid tumor overexpressing or expressing activated EGFR or ErbB2; assay: Open label, multi-dose clinical trial in subjects with cancer; assay type: in vivo, human
[7] = test system: p95; assay: Western blot of phospho-p95 in S1 cells; conditions: 5 μM, 24 hours
[8] = target: T1, p185^ErbB2 (Homo sapiens, UniProt P04626); assay: Western blot of phospho-p185ErbB2 in S1 cells; conditions: 5 μM, 24 hours
T1 sequence (P04626 23-1255): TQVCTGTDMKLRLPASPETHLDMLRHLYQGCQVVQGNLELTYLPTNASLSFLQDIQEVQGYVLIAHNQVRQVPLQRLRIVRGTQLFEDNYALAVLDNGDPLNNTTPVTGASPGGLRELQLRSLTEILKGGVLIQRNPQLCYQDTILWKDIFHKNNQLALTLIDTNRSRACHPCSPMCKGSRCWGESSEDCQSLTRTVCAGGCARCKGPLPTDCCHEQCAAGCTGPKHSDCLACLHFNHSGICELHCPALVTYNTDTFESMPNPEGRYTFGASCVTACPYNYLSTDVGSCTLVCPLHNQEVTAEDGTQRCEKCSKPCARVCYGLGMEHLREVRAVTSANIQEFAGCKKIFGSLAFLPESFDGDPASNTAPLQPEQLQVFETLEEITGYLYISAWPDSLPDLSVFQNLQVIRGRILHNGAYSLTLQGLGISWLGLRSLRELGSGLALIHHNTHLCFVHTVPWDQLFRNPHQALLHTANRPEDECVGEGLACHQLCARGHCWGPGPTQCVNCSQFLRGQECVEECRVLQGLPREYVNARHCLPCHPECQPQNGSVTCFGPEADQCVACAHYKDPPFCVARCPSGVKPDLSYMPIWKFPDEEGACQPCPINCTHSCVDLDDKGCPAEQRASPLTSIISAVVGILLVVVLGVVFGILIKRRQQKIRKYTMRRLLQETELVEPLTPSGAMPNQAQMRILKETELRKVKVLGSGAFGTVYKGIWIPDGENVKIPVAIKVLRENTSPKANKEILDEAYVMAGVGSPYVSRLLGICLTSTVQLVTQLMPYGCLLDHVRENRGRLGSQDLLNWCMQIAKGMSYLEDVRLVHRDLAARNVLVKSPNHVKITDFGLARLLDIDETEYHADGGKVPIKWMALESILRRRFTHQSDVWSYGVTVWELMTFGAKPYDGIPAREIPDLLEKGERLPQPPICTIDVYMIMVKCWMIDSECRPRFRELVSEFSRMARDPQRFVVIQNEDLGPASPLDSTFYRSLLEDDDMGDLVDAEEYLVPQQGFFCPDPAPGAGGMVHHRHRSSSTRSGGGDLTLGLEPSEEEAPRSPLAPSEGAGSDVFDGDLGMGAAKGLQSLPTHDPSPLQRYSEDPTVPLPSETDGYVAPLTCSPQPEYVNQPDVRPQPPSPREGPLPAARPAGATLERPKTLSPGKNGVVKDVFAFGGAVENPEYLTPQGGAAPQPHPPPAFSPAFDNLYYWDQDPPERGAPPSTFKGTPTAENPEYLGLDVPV

[9] = target: T1, p185^ErbB2; assay: Western blot of phospho-p185ErbB2 in Hb4a cells; conditions: parental Hb4a cells, 5 μM, 24 hours
[10] = test system: ErbB3; assay: ErbB3 phosphorylation in BT474 tumor xenografts (IP Western blot); conditions: 100 mg/kg/dose, compared with vehicle
Procedure: Tumors were removed 4 hours after the last dose, frozen in liquid Nitrogen, and stored at −80° C. until analysis. For the terminal biopsy, mice were euthanized with CO2 inhalation. Cell extracts were prepared by homogenization in RIPA buffer at 4° C.
As shown in FIG. 6a-6c, the activation-state of EGFR, p185^ErbB2, p95^ErbB2, and ErbB3 was assessed by IP Western blot.

[11] = target: T1, p185^ErbB2; assay: Western blot of p185ErbB2 in BT474 cells; assay type: cell-based; parameters: The full-length ErbB2 receptor (p185^ErbB2); endogenous in cells; host or cells: BT474
Procedure: as §1

[12] = target: T1, p185^ErbB2; assay: p185ErbB2 in BT474 tumor xenografts (Western blot); assay type: in vivo, mice; parameters: The full-length ErbB2 receptor (p185^ErbB2); from tissue; host or cells: BT474 tumour xenografts in mice; conditions: GW572016 100 mg/kg/dose PO or trastuzumab IP
Description: as §2

[13] = 24 hours, 0.5 μM GW572016 or 10 μg/ml trastuzumab
[14] = GW572016 or trastuzumab (10 mg/kg)
[15] = 11 breast cancer subjects previously treated with trastuzumab

CS(=O)(=O)CCNCc1ccc(-c2ccc3ncnc(Nc4ccc(OCc5cccc(F)c5)c(Cl)c4)c3c2)o1 [GW572016, N-{3-Chloro-4-[(3-fluorobenzyl)oxy]phenyl}-6-[5-({[2-(methylsulfonyl)ethyl]amino}methyl)-2-furyl]-4-quinazolinamine]
phosphorylation of p95ErbB2 in presence and absence of HRG and EGF ([1]; 1 μM, 16 hours, ErbB2 IP): inhibited
HRG-induced p95ErbB2 phosphorylation ([1]; 1 μM, 16 hours, HRG 5 nM 15 min, ErbB3 IP): partially blocked
tyrosine phosphorylation of p95ErbB2 (anti-pTyr mAb) [1, 13]: inhibited
steady state protein levels of total p95ErbB2 ([2]; GW572016 100 mg/kg/dose PO or trastuzumab IP): unchanged
phospho-p95ErbB2 steady state protein levels ([2]; GW572016 100 mg/kg/dose PO, 100 mg/kg): markedly inhibited
Y1248 phosphorylation in p95ErbB2 ([2]; GW572016 100 mg/kg/dose or trastuzumab): inhibited
total steady state protein levels of Erk1/2 and AKT [3]: without affecting
cyclin D steady state protein levels [3, 14]: inhibited
p-AKT steady state protein levels [3, 14]: inhibited
p-Erk1/2 steady state protein levels [3, 14]: inhibited
EGF-induced increase of p-Erk1/2 steady state protein levels ([4]; EGF 50 ng/ml 15 minutes): blocked
HRG-induced AKT phosphorylation ([4]; HRG): partially inhibited
proliferation of BT474 cells [5]: inhibited
reversal of antiproliferative effect in the presence of EGF ([5]; BT474 cells): not completely reversed
effect of prolonged incubation on protection by heregulin ([5]; BT474 cells, 1 μM, prolonged incubation (data not shown)): abrogated the protective effects of heregulin
reversal of inhibitory effects by addition of heregulin ([5]; BT474 cells, 72 hour assay): partially reversed
Partial Responses among breast cancer subjects [6, 15]: three
Stable Disease among breast cancer subjects [6, 15]: four
breast cancer subjects exhibiting responses, of eleven ([6]; 11 breast cancer subjects, all previously treated with trastuzumab, oral ditosylate salt, daily): seven
response of bone metastases ([6]; Patient No. 361, 1200 mg/day): did not respond
time to disappearance of all subcutaneous nodules ([6]; Patient No. 361, 1200 mg/day): ≤ 28 days
anterior abdominal wall nodules ([6]; Patient No. 372, 1200 mg/day): improved
decrease in two right breast masses ([6]; Patient No. 372, 1200 mg/day, August to October 2002): 70%
stable disease, number of subjects ([6]; adenocarcinoma of unknown primary origin): 1
stable disease, number of subjects ([6]; colorectal cancer): 2
stable disease, number of subjects ([6]; granular cell cancer): 1
stable disease, number of subjects ([6]; head and neck cancer): 1
total responses out of 33 subjects ([6]; initial 33 subjects with validated responses, all tumor types): 15
stable disease, number of subjects ([6]; lung cancer): 1
stable disease, number of subjects ([6]; ovarian cancer): 2
p95 phosphorylation [7]: inhibited
p185ErbB2 phosphorylation [8]: inhibited
phosphorylation of p185ErbB2 [9]: inhibited
ErbB3 tyrosine phosphorylation [10]: markedly inhibited
phosphorylation of p185ErbB2 in presence and absence of HRG and EGF ([11]; 1 μM, 16 hours, ErbB2 IP): inhibited
p185ErbB2 phosphorylation (anti-pTyr Western blot) ([11]; 1 μM, 24 hours): inhibited
steady-state p185ErbB2 protein levels (anti-ErbB2 ECD mAb) [11, 13]: did not vary
tyrosine phosphorylation of p185ErbB2 (anti-pTyr mAb) [11, 13]: inhibited
phospho-p185ErbB2 steady state protein levels [12]: inhibited
steady state protein levels of total p185ErbB2 [12]: unchanged
